PMC12717099, “Peptidoglycan recruitment by a penicillin binding protein” (Nature Communications, 2025)

Key:
Type in all cases: binding, Enterococcus faecium
PBP5:PenG complex (1:8) = assay: NMR CSP titration of stem peptides into PenG-saturated PBP5; conditions: PBP5:PenG 1:8, then SP titration
Protocol: Data was processed using Topspin 4.1.4 (Bruker) and analyzed using NMRFAM-SPARKY 1.3 and Poky (build number 20240829)[20],[21]. The sequence-specific backbone assignment of PBP5 is publicly available at BMRBID 51690.
SPs (SP1 to SP7) were titrated into 0.5 mM (^2H,^15N)-labeled and 0.1 mM (^2H,^15N)/^13C ILV labeled PBP5 at molar ratios of 0:1, 5:1, 10:1, 20:1, 40:1, 60:1, and 80:1 (stem peptide/SP:PBP5; molar ratios). 2D [^1H,^15N] TROSY or 2D [^1H,^13C] HMQC spectra were recorded for each titration point. SPs were solubilized in NMR buffer. Chemical shift perturbations (Δδ) between PBP5 and SP bound PBP5 spectra were calculated using Eq. 1,1 Δδppm=ΔδH^2+ΔδX/Y^2 where, X is ^15N or ^13C and Y is the constant i.e., 10 for ^15N and 4 for ^13C.
Residues with significant CSPs were identified by calculating the standard deviation of all CSPs (σ), then excluding any CSPs larger than average+2σ, recalculating σ as a new corrected σ0, and then repetitively removing CSPs above 2σ0 until no additional CSPs can be removed. CSPs above ≥2σ2 was the statistical threshold for ^1H/^15N backbone CSP analysis and ≥2xσ1 for ^1H/^13C methyl ILV data for the interaction of SP1 with PBP5. The same threshold values were used for all other peptides to allow for direct comparison with the SP1/PBP5 interaction. […]

PBP5:PenG complex = assay: 1D 1H STD NMR of stem peptides with PBP5:PenG; conditions: for STD amplification factor: PenG-saturated PBP5, 2 s saturation
Excerpt: (§1) Total saturation time for STD measurements was 2 s.
(§2) Overlapped peaks were completely excluded from the analysis.

PBP5 = assay: 1D 1H STD NMR of stem peptides with PBP5; conditions: for STD % to SP1: normalised to highest SP1:PBP5 value; for STD amplification factor: protein:peptide 1:100, 2 s saturation, 308 K
Excerpt: as §1, §2

D-Lac-L-Ala-D-iGln-L-Lys(D-iAsn)-D-Ala-D-Ala [SP1]
CSPs in presence vs absence of penicillin, in words (PBP5:PenG complex (1:8)): nearly identical
STD amplification factor, ref to SP1 (fraction) (PBP5:PenG complex; 1H DA4α,LA1α): 0.3134
STD, ref to SP1 (percent) (PBP5:PenG complex; 1H DA4α,LA1α): 31.3366
STD amplification factor (PBP5:PenG complex; 1H DA4α,LA1α): 8.432
STD amplification factor, ref to SP1 (fraction) (PBP5:PenG complex; 1H DA4β, DLacβ): 0.2401
STD, ref to SP1 (percent) (PBP5:PenG complex; 1H DA4β, DLacβ): 24.0089
STD amplification factor (PBP5:PenG complex; 1H DA4β, DLacβ): 6.4604
STD amplification factor, ref to SP1 (fraction) (PBP5:PenG complex; 1H DA5α): 0.5713
STD, ref to SP1 (percent) (PBP5:PenG complex; 1H DA5α): 57.1289
STD amplification factor (PBP5:PenG complex; 1H DA5α): 15.3725
STD amplification factor, ref to SP1 (fraction) (PBP5:PenG complex; 1H DA5β): 0.2936
STD, ref to SP1 (percent) (PBP5:PenG complex; 1H DA5β): 29.3585
STD amplification factor (PBP5:PenG complex; 1H DA5β): 7.9
STD amplification factor, ref to SP1 (fraction) (PBP5:PenG complex; 1H DQ2α,Dlacα,iNα): 0.2074
STD, ref to SP1 (percent) (PBP5:PenG complex; 1H DQ2α,Dlacα,iNα): 20.7354
STD amplification factor (PBP5:PenG complex; 1H DQ2α,Dlacα,iNα): 5.58
STD amplification factor, ref to SP1 (fraction) (PBP5:PenG complex; 1H DQ2β (first listed)): 0.7176
STD, ref to SP1 (percent) (PBP5:PenG complex; 1H DQ2β (first listed)): 71.7627
STD amplification factor (PBP5:PenG complex; 1H DQ2β (first listed)): 19.3102
STD amplification factor, ref to SP1 (fraction) (PBP5:PenG complex; 1H DQ2β (second listed)): 0.813
STD, ref to SP1 (percent) (PBP5:PenG complex; 1H DQ2β (second listed)): 81.3002
STD amplification factor (PBP5:PenG complex; 1H DQ2β (second listed)): 21.8766
STD amplification factor, ref to SP1 (fraction) (PBP5:PenG complex; 1H DQ2γ): 0.3426
STD, ref to SP1 (percent) (PBP5:PenG complex; 1H DQ2γ): 34.2606
STD amplification factor (PBP5:PenG complex; 1H DQ2γ): 9.219
STD amplification factor, ref to SP1 (fraction) (PBP5:PenG complex; 1H K3α): 0.4115
STD, ref to SP1 (percent) (PBP5:PenG complex; 1H K3α): 41.1521
STD amplification factor (PBP5:PenG complex; 1H K3α): 11.0734
STD amplification factor, ref to SP1 (fraction) (PBP5:PenG complex; 1H K3β): 0.9267
STD, ref to SP1 (percent) (PBP5:PenG complex; 1H K3β): 92.6679
STD amplification factor (PBP5:PenG complex; 1H K3β): 24.9355
STD amplification factor, ref to SP1 (fraction) (PBP5:PenG complex; 1H K3δ): 0.5468
STD, ref to SP1 (percent) (PBP5:PenG complex; 1H K3δ): 54.6801
STD amplification factor (PBP5:PenG complex; 1H K3δ): 14.7135
STD amplification factor, ref to SP1 (fraction) (PBP5:PenG complex; 1H K3ε): 0.1626
STD, ref to SP1 (percent) (PBP5:PenG complex; 1H K3ε): 16.2603
STD amplification factor (PBP5:PenG complex; 1H K3ε): 4.3754
STD amplification factor, ref to SP1 (fraction) (PBP5:PenG complex; 1H LA1β): 0.2447
STD, ref to SP1 (percent) (PBP5:PenG complex; 1H LA1β): 24.4674
STD amplification factor (PBP5:PenG complex; 1H LA1β): 6.584
STD amplification factor, ref to SP1 (fraction) (PBP5:PenG complex; 1H iNβ): 0.3143
STD, ref to SP1 (percent) (PBP5:PenG complex; 1H iNβ): 31.4336
STD amplification factor (PBP5:PenG complex; 1H iNβ): 8.458
STD amplification factor as fraction of highest SP1:PBP5 value (PBP5; 1H DA4α,LA1α): 0.3688
STD % to SP1 (PBP5; 1H DA4α,LA1α): 36.8831%
STD amplification factor (PBP5; 1H DA4α,LA1α): 9.925
STD amplification factor as fraction of highest SP1:PBP5 value (PBP5; 1H DA4β, DLacβ): 0.2569
STD % to SP1 (PBP5; 1H DA4β, DLacβ): 25.6923%
STD amplification factor (PBP5; 1H DA4β, DLacβ): 6.913
STD amplification factor as fraction of highest SP1:PBP5 value (PBP5; 1H DA5α): 0.6484
STD % to SP1 (PBP5; 1H DA5α): 64.837%
STD amplification factor (PBP5; 1H DA5α): 17.4466
STD amplification factor as fraction of highest SP1:PBP5 value (PBP5; 1H DA5β): 0.3281
STD % to SP1 (PBP5; 1H DA5β): 32.8081%
STD amplification factor (PBP5; 1H DA5β): 8.828
STD amplification factor as fraction of highest SP1:PBP5 value (PBP5; 1H DQ2α,Dlacα,iNα): 0.2333
STD % to SP1 (PBP5; 1H DQ2α,Dlacα,iNα): 23.3322%
STD amplification factor (PBP5; 1H DQ2α,Dlacα,iNα): 6.278
STD amplification factor as fraction of highest SP1:PBP5 value (PBP5; 1H DQ2β (first listed)): 0.816
STD % to SP1 (PBP5; 1H DQ2β (first listed)): 81.5959%
STD amplification factor (PBP5; 1H DQ2β (first listed)): 21.9561
STD amplification factor as fraction of highest SP1:PBP5 value (PBP5; 1H DQ2β (second listed)): 0.8819
STD % to SP1 (PBP5; 1H DQ2β (second listed)): 88.186%
STD amplification factor (PBP5; 1H DQ2β (second listed)): 23.7294
STD amplification factor as fraction of highest SP1:PBP5 value (PBP5; 1H DQ2γ): 0.3832
STD % to SP1 (PBP5; 1H DQ2γ): 38.3191%
STD amplification factor (PBP5; 1H DQ2γ): 10.3111
STD amplification factor as fraction of highest SP1:PBP5 value (PBP5; 1H K3α): 0.5115
STD % to SP1 (PBP5; 1H K3α): 51.1543%
STD amplification factor (PBP5; 1H K3α): 13.7648
STD amplification factor as fraction of highest SP1:PBP5 value (PBP5; 1H K3β): 1
STD % to SP1 (PBP5; 1H K3β): 100%
STD amplification factor (PBP5; 1H K3β): 26.9084
STD amplification factor as fraction of highest SP1:PBP5 value (PBP5; 1H K3δ): 0.7475
STD % to SP1 (PBP5; 1H K3δ): 74.7509%
STD amplification factor (PBP5; 1H K3δ): 20.1143
STD amplification factor as fraction of highest SP1:PBP5 value (PBP5; 1H K3ε): 0.2891
STD % to SP1 (PBP5; 1H K3ε): 28.9129%
STD amplification factor (PBP5; 1H K3ε): 7.78
STD amplification factor as fraction of highest SP1:PBP5 value (PBP5; 1H LA1β): 0.276
STD % to SP1 (PBP5; 1H LA1β): 27.6026%
STD amplification factor (PBP5; 1H LA1β): 7.427
STD amplification factor as fraction of highest SP1:PBP5 value (PBP5; 1H iNβ): 0.3449
STD % to SP1 (PBP5; 1H iNβ): 34.4916%
STD amplification factor (PBP5; 1H iNβ): 9.281
